Laboratory results published in US20220175925A1, “PHARMACEUTICAL COMPOSITION FOR PREVENTING OR TREATING TREATMENT-RESISTANT CANCER” (JIMRO CO., LTD., priority 2019, published 2022).

Tests used:
Format in all cases: cell-based
C8166 ATL cell line = assay: PDT using 5-ALA, cell survival rate by Cell Counting Kit-8, C8166; details: for EC50: Homo sapiens, C8166, light or radiation study, 4 h, C8166, 5-ALA loaded 4 hours
Description: (§1) ATN-1, C8166, TL-Om1, Hut102, and MT-1 were used as ATL cell lines. Among them, lenalidomide-sensitive cell line was Hut102 and lenalidomide-resistant cell line was C8166. The sensitivity of ATN-1, TL-Om1, and MT-1 to lenalidomide was unknown. Meanwhile, tretinoin-sensitive cell line was C8166 and tretinoin-resistant cell line was Hut102. The sensitivity of ATN-1, TL-Om1, and MT-1 to tretinoin was unknown. In addition, mogamulizumab-sensitive cell lines were ATN-1, TL-Om1, and MT-1, and mogamulizumab-resistant cell line was Hut102. The sensitivity of C8166 to mogamulizumab was unknown. These cells were passaged and cultured. For the experiment, cells were prepared to a density of 1×10^6 cells/ml at the beginning of the experiment.
(§2) To the cell suspension, 5-ALA was added at concentrations of 0, 0.0625, 0.125, 0.25, and 0.5 mM and loaded for 4 hours. The cell after 5-ALA loading was washed and irradiated with light (0, 10, 30, and 100 J/cm^2) at a central wavelength of 630 nm, and cell survival rate (%) was calculated by Cell Counting Kit-8.

Hut102 ATL cell line = assay: PDT using 5-ALA, cell survival rate by Cell Counting Kit-8, Hut102; details: for EC50: HuT-102, light or radiation study, 4 h, Hut102, 5-ALA loaded 4 hours
Description: as §1, §2

ATN-1 ATL cell line = assay: PDT using 5-ALA, cell survival rate by Cell Counting Kit-8, ATN-1; details: Homo sapiens, ATN-1, light or radiation study, 4 h, 5-ALA loaded 4 hours
Description: as §1, §2

TL-Om1 ATL cell line = assay: PDT using 5-ALA, cell survival rate by Cell Counting Kit-8, TL-Om1; details: light or radiation study, 4 h, 5-ALA loaded 4 hours
Description: as §1, §2

MT-1 ATL cell line = assay: PDT using 5-ALA, cell survival rate by Cell Counting Kit-8, MT-1; details: light or radiation study, 4 h, 5-ALA loaded 4 hours
Description: as §1, §2

[1] = tested on: LAMA84-r imatinib-resistant CML cell line; assay: PDT using 5-ALA, cell survival rate by Cell Counting Kit-8, LAMA84-r
Procedure: (§3) LAMA84-r was used as imatinib-resistant CML cell line and the original cell line LAMA84-s (imatinib-sensitive) was used as a comparative control. In addition, K562/ADR was used as doxorubicin-resistant CML cell line and the original cell line K562 (doxorubicin-sensitive) was used as a comparative control. These cells were passaged and cultured. For the experiment, cells were prepared to a density of 1×10^6 cells/ml at the beginning of the experiment.
as §2

[2] = tested on: K562/ADR doxorubicin-resistant CML cell line; assay: PDT using 5-ALA, cell survival rate by Cell Counting Kit-8, K562/ADR
Procedure: as §3, §2

NCC(=O)CCC(=O)O [5-ALA, 5-aminolevulinic acid]
cell killing by PDT using 5-ALA (C8166 ATL cell line; C8166, lenalidomide-resistant cell line, FIG. 1): killed | EC50 (C8166 ATL cell line; 10 J/cm^2 at 630 nm): 113 µM | EC50 (C8166 ATL cell line; 30 J/cm^2 at 630 nm): 87 µM | EC50 (C8166 ATL cell line; 100 J/cm^2 at 630 nm): 77 µM | cell killing effect of PDT using 5-ALA relative to sensitive cell line (C8166 ATL cell line; lenalidomide-resistant C8166 versus lenalidomide-sensitive Hut102): comparable | cell killing effect of PDT using 5-ALA relative to sensitive cell line (C8166 ATL cell line; tretinoin-resistant cell line C8166 versus tretinoin-sensitive cell line Hut102 (so in the source)): comparable | cell killing by PDT using 5-ALA (Hut102 ATL cell line; HuT102, mogamulizumab-resistant and tretinoin-resistant cell line, FIG. 1): killed | EC50 (Hut102 ATL cell line; 10 J/cm^2 at 630 nm): 441 µM | EC50 (Hut102 ATL cell line; 30 J/cm^2 at 630 nm): 277 µM | EC50 (Hut102 ATL cell line; 100 J/cm^2 at 630 nm): 173 µM | cell killing effect of PDT using 5-ALA relative to sensitive cell lines (Hut102 ATL cell line; mogamulizumab-resistant Hut102 versus the other sensitive cell lines (ATN-1, TL-Om1, MT-1)): at least comparable | EC50 (ATN-1 ATL cell line; 10 J/cm^2 at 630 nm): 113 µM | EC50 (ATN-1 ATL cell line; 30 J/cm^2 at 630 nm): 87 µM | EC50 (ATN-1 ATL cell line; 100 J/cm^2 at 630 nm): 84 µM | EC50 (TL-Om1 ATL cell line; 10 J/cm^2 at 630 nm): 269 µM | EC50 (TL-Om1 ATL cell line; 30 J/cm^2 at 630 nm): 141 µM | EC50 (TL-Om1 ATL cell line; 100 J/cm^2 at 630 nm): 92 µM | EC50 (MT-1 ATL cell line; 10 J/cm^2 at 630 nm): > 500 µM | EC50 (MT-1 ATL cell line; 30 J/cm^2 at 630 nm): 202 µM | EC50 (MT-1 ATL cell line; 100 J/cm^2 at 630 nm): 115 µM | cell killing by PDT using 5-ALA ([1]; LAMA84-r, imatinib-resistant cell line, FIG. 2): killed | cell killing effect of PDT using 5-ALA relative to sensitive cell line ([1]; imatinib-resistant LAMA84-r versus LAMA84-s): comparable | cell killing by PDT using 5-ALA ([2]; K562/ADR, doxorubicin-resistant cell line, FIG. 2): killed | cell killing effect of PDT using 5-ALA relative to sensitive cell line ([2]; doxorubicin-resistant K562/ADR versus K562): comparable
